Results: publication PMC8371461 (Frontiers in Pharmacology, 2021)

Experiments:
Test in all cases: kinome scan
Format in all cases: binding
CDK9 = target: T1, CDK9 (Homo sapiens, UniProt P50750); details: 10 µM
T1 construct: purchased DiscoverX (KINOMEscan)

MST3 = target: T2, MST3 (Homo sapiens, UniProt Q9Y6E0); details: 10 µM
T2 construct: purchased DiscoverX (KINOMEscan)

MEK3 = target: T3, MEK3 (Homo sapiens, UniProt P46734); details: 10 µM
T3 construct: purchased DiscoverX (KINOMEscan)

RIPK5 = target: T4, RIPK5 (Homo sapiens, UniProt Q6XUX3); details: 10 µM
T4 construct: purchased DiscoverX (KINOMEscan)
T4 sequence (Q6XUX3 whole entry): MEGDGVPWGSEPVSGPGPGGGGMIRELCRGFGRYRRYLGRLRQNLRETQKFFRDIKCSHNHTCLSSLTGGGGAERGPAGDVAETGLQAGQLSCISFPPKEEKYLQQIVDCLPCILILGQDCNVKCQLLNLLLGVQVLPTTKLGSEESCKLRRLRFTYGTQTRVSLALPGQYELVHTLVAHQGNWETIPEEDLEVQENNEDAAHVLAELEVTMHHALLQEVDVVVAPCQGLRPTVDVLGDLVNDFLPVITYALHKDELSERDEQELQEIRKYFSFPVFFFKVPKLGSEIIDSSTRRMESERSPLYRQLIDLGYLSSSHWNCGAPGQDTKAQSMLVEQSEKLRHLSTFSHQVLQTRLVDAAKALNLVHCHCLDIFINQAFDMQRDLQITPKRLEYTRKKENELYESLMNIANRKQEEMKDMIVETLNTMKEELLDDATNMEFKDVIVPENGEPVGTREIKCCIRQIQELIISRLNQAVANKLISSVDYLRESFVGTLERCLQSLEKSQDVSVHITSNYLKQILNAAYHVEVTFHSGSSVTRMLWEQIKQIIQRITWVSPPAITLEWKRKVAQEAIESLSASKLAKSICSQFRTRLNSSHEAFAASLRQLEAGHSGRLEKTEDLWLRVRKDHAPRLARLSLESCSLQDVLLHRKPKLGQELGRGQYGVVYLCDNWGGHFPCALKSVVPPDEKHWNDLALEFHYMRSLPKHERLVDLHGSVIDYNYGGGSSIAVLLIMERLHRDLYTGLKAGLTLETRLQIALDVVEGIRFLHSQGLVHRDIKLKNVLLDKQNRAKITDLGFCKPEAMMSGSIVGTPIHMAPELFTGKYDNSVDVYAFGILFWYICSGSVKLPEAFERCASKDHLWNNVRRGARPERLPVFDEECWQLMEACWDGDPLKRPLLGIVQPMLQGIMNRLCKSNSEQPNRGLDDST

MEK5 = target: T5, MEK5 (Homo sapiens, UniProt Q13163); details: 10 µM
T5 construct: purchased DiscoverX (KINOMEscan)

EPHA3 = target: T6, EPHA3 (Homo sapiens, UniProt P29320); details: 10 µM
T6 construct: purchased DiscoverX (KINOMEscan)

TRKA = target: T7, TRKA (Homo sapiens, UniProt P04629); details: 10 µM
T7 construct: purchased DiscoverX (KINOMEscan)

HUNK = target: T8, HUNK (Homo sapiens, UniProt P57058); details: 10 µM
T8 construct: purchased DiscoverX (KINOMEscan)

RET(V804M) = target: T9, RET(V804M) (Homo sapiens, UniProt P07949, V804M); details: 10 µM
T9 construct: purchased DiscoverX (KINOMEscan)

PRKX = target: T10, PRKX (Homo sapiens, UniProt P51817); details: 10 µM
T10 construct: purchased DiscoverX (KINOMEscan)

[1] = target: T11, RSK3(Kin.Dom.1-N-terminal) (Homo sapiens, UniProt Q15349); details: 10 µM
T11 construct: RSK3(Kin.Dom.1-N-terminal); purchased DiscoverX (KINOMEscan)
T11 sequence (Q15349 59-318 limits assumed): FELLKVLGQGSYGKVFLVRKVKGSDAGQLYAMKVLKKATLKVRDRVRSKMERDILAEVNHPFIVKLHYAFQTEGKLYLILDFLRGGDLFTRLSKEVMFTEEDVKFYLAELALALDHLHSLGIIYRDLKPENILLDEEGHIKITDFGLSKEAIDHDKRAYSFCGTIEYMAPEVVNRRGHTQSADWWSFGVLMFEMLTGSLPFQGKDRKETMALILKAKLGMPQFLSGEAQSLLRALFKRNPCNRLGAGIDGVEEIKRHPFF

TRKC = target: T12, TRKC (Homo sapiens, UniProt Q16288); details: 10 µM
T12 construct: purchased DiscoverX (KINOMEscan)

ADCK3 = target: T13, ADCK3 (Homo sapiens, UniProt Q8NI60); details: 10 µM
T13 construct: purchased DiscoverX (KINOMEscan)

FGFR3(G697C) = target: T14, FGFR3(G697C) (Homo sapiens, UniProt P22607, G697C); details: 10 µM
T14 construct: purchased DiscoverX (KINOMEscan)

MARK2 = target: T15, MARK2 (Homo sapiens, UniProt Q7KZI7); details: 10 µM
T15 construct: purchased DiscoverX (KINOMEscan)

SRPK3 = target: T16, SRPK3 (Homo sapiens, UniProt Q9UPE1); details: 10 µM
T16 construct: purchased DiscoverX (KINOMEscan)

PAK1 = target: T17, PAK1 (Homo sapiens, UniProt Q13153); details: 10 µM
T17 construct: purchased DiscoverX (KINOMEscan)

[2] = target: T18, ABL1(M351T)-phosphorylated (Homo sapiens, UniProt P00519, M351T); details: 10 µM
T18 construct: purchased DiscoverX (KINOMEscan)

CDK3 = target: T19, CDK3 (Homo sapiens, UniProt Q00526); details: 10 µM
T19 construct: purchased DiscoverX (KINOMEscan)
T19 sequence (Q00526 whole entry): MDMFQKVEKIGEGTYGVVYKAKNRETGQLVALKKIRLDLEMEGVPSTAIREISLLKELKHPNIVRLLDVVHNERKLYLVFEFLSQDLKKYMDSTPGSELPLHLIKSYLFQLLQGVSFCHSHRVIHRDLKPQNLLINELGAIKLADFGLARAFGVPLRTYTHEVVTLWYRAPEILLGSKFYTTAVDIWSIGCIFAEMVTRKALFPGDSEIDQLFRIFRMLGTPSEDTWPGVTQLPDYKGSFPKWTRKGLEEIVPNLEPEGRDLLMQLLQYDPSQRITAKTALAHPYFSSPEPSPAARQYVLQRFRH

MLK3 = target: T20, MLK3 (Homo sapiens, UniProt Q16584); details: 10 µM
T20 construct: purchased DiscoverX (KINOMEscan)

YANK2 = target: T21, YANK2 (Homo sapiens, UniProt Q9NY57); details: 10 µM
T21 construct: purchased DiscoverX (KINOMEscan)

PDGFRA = target: T22, PDGFRA (Homo sapiens, UniProt P16234); details: 10 µM
T22 construct: purchased DiscoverX (KINOMEscan)

LATS1 = target: T23, LATS1 (Homo sapiens, UniProt O95835); details: 10 µM
T23 construct: purchased DiscoverX (KINOMEscan)

p38-beta = target: T24, p38-beta (Homo sapiens, UniProt Q15759); details: 10 µM
T24 construct: purchased DiscoverX (KINOMEscan)

TXK = target: T25, TXK (Homo sapiens, UniProt P42681); details: 10 µM
T25 construct: purchased DiscoverX (KINOMEscan)

RIPK1 = target: T26, RIPK1 (Homo sapiens, UniProt Q13546); details: 10 µM
T26 construct: purchased DiscoverX (KINOMEscan)

PIP5K2B = target: T27, PIP5K2B (Homo sapiens, UniProt P78356); details: 10 µM
T27 construct: purchased DiscoverX (KINOMEscan)

MELK = target: T28, MELK (Homo sapiens, UniProt Q14680); details: 10 µM
T28 construct: purchased DiscoverX (KINOMEscan)

MKNK1 = target: T29, MKNK1 (Homo sapiens, UniProt Q9BUB5); details: 10 µM
T29 construct: purchased DiscoverX (KINOMEscan)

ERK4 = target: T30, ERK4 (Homo sapiens, UniProt P31152); details: 10 µM
T30 construct: purchased DiscoverX (KINOMEscan)

ALK = target: T31, ALK (Homo sapiens, UniProt Q9UM73); details: 10 µM
T31 construct: purchased DiscoverX (KINOMEscan)

PRKCD = target: T32, PRKCD (Homo sapiens, UniProt Q05655); details: 10 µM
T32 construct: purchased DiscoverX (KINOMEscan)

[3] = target: T33, RSK4(Kin.Dom.2-C-terminal) (Homo sapiens, UniProt Q9UK32); details: 10 µM
T33 construct: RSK4(Kin.Dom.2-C-terminal); purchased DiscoverX (KINOMEscan)

NLK = target: T34, NLK (Homo sapiens, UniProt Q9UBE8); details: 10 µM
T34 construct: purchased DiscoverX (KINOMEscan)

PIK3CB = target: T35, PIK3CB (Homo sapiens, UniProt P42338)
T35 construct: purchased DiscoverX (KINOMEscan)
T35 sequence (P42338 whole entry): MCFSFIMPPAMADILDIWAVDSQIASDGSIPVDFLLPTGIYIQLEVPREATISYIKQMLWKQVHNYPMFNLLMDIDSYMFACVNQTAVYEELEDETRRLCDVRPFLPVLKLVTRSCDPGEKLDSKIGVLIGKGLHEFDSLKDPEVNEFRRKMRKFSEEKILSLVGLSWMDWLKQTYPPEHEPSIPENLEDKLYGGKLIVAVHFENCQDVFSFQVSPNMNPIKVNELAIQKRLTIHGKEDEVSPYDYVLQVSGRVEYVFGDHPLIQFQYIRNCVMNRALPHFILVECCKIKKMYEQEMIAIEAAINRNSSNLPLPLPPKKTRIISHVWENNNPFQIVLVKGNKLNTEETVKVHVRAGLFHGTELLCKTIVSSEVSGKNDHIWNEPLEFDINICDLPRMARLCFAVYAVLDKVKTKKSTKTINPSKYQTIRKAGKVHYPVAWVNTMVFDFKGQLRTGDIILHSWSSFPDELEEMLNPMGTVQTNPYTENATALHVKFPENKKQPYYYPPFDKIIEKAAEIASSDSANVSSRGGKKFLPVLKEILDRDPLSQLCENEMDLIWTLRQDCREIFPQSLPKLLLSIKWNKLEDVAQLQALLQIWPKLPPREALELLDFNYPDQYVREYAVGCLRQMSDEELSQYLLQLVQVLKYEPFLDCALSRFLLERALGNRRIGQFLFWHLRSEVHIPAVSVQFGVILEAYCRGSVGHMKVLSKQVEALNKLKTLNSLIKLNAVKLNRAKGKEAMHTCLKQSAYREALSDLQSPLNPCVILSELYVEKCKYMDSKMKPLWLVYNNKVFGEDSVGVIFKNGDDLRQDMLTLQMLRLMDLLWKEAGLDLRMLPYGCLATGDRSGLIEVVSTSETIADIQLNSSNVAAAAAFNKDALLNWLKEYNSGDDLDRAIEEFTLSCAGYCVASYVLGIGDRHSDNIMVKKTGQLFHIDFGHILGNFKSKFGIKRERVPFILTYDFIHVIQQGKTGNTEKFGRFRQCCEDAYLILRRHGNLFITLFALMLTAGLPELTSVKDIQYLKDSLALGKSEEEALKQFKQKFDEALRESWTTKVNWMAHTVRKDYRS

VRK2 = target: T36, VRK2 (Homo sapiens, UniProt Q86Y07); details: 10 µM
T36 construct: purchased DiscoverX (KINOMEscan)
T36 sequence (Q86Y07 whole entry): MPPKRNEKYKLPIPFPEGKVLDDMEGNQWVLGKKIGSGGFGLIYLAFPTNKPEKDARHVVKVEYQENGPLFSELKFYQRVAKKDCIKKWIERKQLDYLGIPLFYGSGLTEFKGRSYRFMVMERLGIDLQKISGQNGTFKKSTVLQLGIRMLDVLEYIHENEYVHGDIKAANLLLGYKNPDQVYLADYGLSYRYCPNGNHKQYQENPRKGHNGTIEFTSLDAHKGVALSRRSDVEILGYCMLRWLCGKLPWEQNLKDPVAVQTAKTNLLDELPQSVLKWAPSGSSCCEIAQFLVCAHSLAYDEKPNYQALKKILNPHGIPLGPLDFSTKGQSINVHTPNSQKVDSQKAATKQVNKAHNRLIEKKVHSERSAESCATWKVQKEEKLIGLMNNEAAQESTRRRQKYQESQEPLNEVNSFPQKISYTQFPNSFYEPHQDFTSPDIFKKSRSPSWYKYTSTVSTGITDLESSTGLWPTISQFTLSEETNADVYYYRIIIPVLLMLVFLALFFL

LTK = target: T37, LTK (Homo sapiens, UniProt P29376); details: 10 µM
T37 construct: purchased DiscoverX (KINOMEscan)

[4] = target: T38, RSK1(Kin.Dom.2-C-terminal) (Homo sapiens, UniProt Q15418); details: 10 µM
T38 construct: RSK1(Kin.Dom.2-C-terminal); purchased DiscoverX (KINOMEscan)
T38 sequence (Q15418 418-675 limits assumed): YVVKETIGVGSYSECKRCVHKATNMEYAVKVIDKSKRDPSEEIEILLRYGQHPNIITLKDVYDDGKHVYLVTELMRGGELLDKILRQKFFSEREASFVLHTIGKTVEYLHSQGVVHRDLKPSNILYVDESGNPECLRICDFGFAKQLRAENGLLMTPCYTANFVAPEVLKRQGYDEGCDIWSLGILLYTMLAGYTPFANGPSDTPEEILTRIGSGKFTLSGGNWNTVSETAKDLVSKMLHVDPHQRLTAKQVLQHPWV

MAP3K3 = target: T39, MAP3K3 (Homo sapiens, UniProt Q99759); details: 10 µM
T39 construct: purchased DiscoverX (KINOMEscan)
T39 sequence (Q99759 whole entry): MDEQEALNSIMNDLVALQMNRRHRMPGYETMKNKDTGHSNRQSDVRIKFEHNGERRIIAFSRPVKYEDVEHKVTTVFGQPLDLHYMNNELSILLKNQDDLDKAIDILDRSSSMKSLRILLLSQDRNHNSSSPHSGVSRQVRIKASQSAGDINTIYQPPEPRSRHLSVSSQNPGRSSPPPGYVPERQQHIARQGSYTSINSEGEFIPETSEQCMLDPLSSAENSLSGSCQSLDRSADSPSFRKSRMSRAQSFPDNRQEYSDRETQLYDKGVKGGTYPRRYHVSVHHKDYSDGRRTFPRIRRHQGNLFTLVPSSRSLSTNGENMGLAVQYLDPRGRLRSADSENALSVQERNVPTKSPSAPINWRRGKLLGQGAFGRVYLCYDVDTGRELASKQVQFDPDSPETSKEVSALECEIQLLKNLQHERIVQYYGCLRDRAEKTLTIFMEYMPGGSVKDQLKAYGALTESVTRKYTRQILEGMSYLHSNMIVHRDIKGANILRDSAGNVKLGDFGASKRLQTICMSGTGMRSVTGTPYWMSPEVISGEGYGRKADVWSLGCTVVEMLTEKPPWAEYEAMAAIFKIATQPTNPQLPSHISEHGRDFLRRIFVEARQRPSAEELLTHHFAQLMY

[5] = target: T40, JAK2(JH1domain-catalytic) (Homo sapiens, UniProt O60674); details: 10 µM
T40 construct: JAK2(JH1domain-catalytic); purchased DiscoverX (KINOMEscan)

PIK3CA(H1047L) = target: T41, PIK3CA(H1047L) (Homo sapiens, UniProt P42336, H1047L); details: 10 µM
T41 construct: purchased DiscoverX (KINOMEscan)

T1 sequence (P50750 whole entry): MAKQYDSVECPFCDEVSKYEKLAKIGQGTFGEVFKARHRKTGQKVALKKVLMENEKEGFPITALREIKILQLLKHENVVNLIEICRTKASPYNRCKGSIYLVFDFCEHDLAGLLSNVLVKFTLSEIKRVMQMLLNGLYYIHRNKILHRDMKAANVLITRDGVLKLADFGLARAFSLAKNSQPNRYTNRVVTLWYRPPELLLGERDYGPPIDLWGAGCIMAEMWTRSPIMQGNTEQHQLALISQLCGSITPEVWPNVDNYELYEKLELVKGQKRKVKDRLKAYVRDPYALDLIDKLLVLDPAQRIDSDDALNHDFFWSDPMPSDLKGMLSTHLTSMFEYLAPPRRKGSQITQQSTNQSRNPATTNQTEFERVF
T2 sequence (Q9Y6E0 whole entry): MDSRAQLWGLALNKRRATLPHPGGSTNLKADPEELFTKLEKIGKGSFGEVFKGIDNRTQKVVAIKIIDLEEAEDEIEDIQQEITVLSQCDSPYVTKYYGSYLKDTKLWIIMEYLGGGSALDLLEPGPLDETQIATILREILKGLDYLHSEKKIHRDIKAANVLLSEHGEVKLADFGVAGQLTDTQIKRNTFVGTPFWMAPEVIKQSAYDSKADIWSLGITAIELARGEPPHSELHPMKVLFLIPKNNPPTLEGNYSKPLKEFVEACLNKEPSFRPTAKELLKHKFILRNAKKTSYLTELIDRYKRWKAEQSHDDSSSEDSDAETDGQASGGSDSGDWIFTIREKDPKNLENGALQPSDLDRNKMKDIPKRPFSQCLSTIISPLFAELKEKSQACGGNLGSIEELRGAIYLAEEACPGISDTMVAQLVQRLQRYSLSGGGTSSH

## Nc1ccc(N=Nc2ccccc2)c(N)n1 [phenazopyridine, 2,6-diamino-3-(phenylazo)pyridine]
CDK9
  kinase inhibition: 88
MST3
  kinase inhibition: 98
MEK3
  kinase inhibition: 54
RIPK5
  kinase inhibition: 68
MEK5
  kinase inhibition: 90
EPHA3
  kinase inhibition: 81
TRKA
  kinase inhibition: 100
HUNK
  kinase inhibition: 100
RET(V804M)
  remaining binding (% of control): 100
PRKX
  kinase inhibition: 91
[1]
  kinase inhibition: 100
TRKC
  kinase inhibition: 90
ADCK3
  kinase inhibition: 91
FGFR3(G697C)
  kinase inhibition: 100
MARK2
  kinase inhibition: 100
SRPK3
  kinase inhibition: 94
PAK1
  kinase inhibition: 100
[2]
  kinase inhibition: 85
CDK3
  kinase inhibition: 100
MLK3
  kinase inhibition: 100
YANK2
  kinase inhibition: 90
PDGFRA
  kinase inhibition: 38
LATS1
  kinase inhibition: 87
p38-beta
  kinase inhibition: 83
TXK
  remaining binding (% of control): 100
RIPK1
  remaining binding (% of control): 100
PIP5K2B
  kinase inhibition: 97
MELK
  kinase inhibition: 79
MKNK1
  kinase inhibition: 37
ERK4
  kinase inhibition: 74
ALK
  kinase inhibition: 89
PRKCD
  kinase inhibition: 100
[3]
  kinase inhibition: 81
NLK
  kinase inhibition: 88
PIK3CB; 10 µM
  remaining binding (% of control): 22
PIK3CB; read-out: % Of control
  remaining binding at 10 µM: 22%
VRK2
  kinase inhibition: 86
LTK
  kinase inhibition: 96
[4]
  kinase inhibition: 86
MAP3K3
  kinase inhibition: 89
[5]
  kinase inhibition: 82
PIK3CA(H1047L)
  kinase inhibition: 80
